Results: patent US9993002B2, “1,2,3-thiadiazol-5yl-urea derivatives, use thereof for regulating plant senescence and preparations containing these derivatives” (USTAV EXPERIMENTALNI BOTANIKY AV CR, V.V.I., priority 2014, dated 2018)

Assays:
[1] = system: detached leaf segments of Triticum aestivum cv. Hereward; assay: Senescence bioassay on wheat leaf segments in dark conditions; conditions: dark, 96 h, 25° C., chlorophyll absorbance 665 nm, read-out: Senescence bioassay (IC50)
Protocol: (§1) Seeds of winter wheat, Triticum aestivum cv. Hereward, were washed under running water for 24 hours and then sown on perlite soaked with Hogland's solution. They were placed in the growth chamber at 25° C. with a 16/8 h light period at 50 μmol·m^−2·s^−1. After 7 days, the first leaf was fully developed and the second leaf had started to grow. A tip section of the first leaf, approximately 4 cm long, was removed from 4 seedlings and trimmed slightly to a combined weight of 100 mg. The basal ends of the four leaf tips were placed into the 96-wells plate containing 150 μL of the tested derivative solution each. The entire plate was inserted into a plastic box lined with paper tissues soaked in distilled water to prevent leaf sections from drying out. After 96 h incubation in the dark at 25° C., the leaves were removed and chlorophyll extracted by heating at 80° C. for 10 min in 5 mL of 80% ethanol (v/v). The sample volume was then restored to 5 mL by the addition of 80% ethanol (v/v). The absorbance of the extract was recorded at 665 nm. In addition, chlorophyll extracts from fresh leaves and leaf tips incubated in deionised water were measured. The results are means of five replicates and the entire test was repeated at least twice. […] The compounds to be tested were dissolved in dimethylsulfoxide (DMSO) and the solution brought up to 10^−3 M with distilled water. […] The IC50 values were determined for standard (BAP) and novel tested compounds.

[2] = system: detached leaf segments of Triticum aestivum cv. Hereward; assay: Senescence bioassay on wheat leaf segments in dark/light conditions; conditions: foliar, 168 h, read-out: Senescence bioassay (IC50)
Protocol: as §1
The ability of the novel compounds to retard chlorophyll degradation in detached wheat leaves was tested also in the light conditions. The experiment was performed as described in Example 7 with modifications as follows—the incubation of the leaves with the compounds was done in the dark/light conditions 8/16 (light—100 μmol·m^−2·s^−1) at 22° C. for 7 days. […] The newly prepared substituted 1,2,3-thiadiazol-5-yl urea derivatives of the invention are much stronger anti-senescent compounds in comparison to the BAP in retarding senescence under optimal (dark/light) conditions.

[3] = system: detached leaves of Triticum aestivum cv. Hereward; assay: Membrane lipid peroxidation (MDA, TBA method) in detached wheat leaves in the dark; conditions: for MDA: four days in the dark
Protocol: A typical symptom associated with senescence as a direct consequence of increased reactive oxygen species is membrane lipid peroxidation which produces malondialdehyde (MDA). Therefore the levels of MDA, a decomposition product of lipid peroxidation, were measured in detached wheat leaves that were exposed to the prepared novel derivatives or BAP for four days in the dark as described in Example 7. MDA levels were measured using a thiobarbituric acid (TBA) method. In detail, 100 mg of fresh plant material was homogenized by high speed shaking in a ball mill (MM301, Retsch, Germany) with 1 mL of 70% methanol. The crude extract was centrifuged at 10,000×g for 5 min, and 100 μL aliquot of supernatant was vortexed with 100 μL of 0.5% (w/v) TBA containing 0.1% (w/v) trichloroacetic acid, and the resulting solution was then incubated for 30 min at 95° C. The samples were quickly cooled on ice and centrifuged for 5 min at 1000 g. The absorbance of supernatant was measured at 532 nm with background subtraction at 600 nm and the amount of MDA-TBA complex was calculated from the coefficient of absorbance 155 mM^−1 cm^−1.

[4] = system: Arabidopsis thaliana (wild-type Col-0); assay: Root growth and lateral root formation of Arabidopsis; assay type: in vivo; conditions: 10 nM; for Lateral root number / Primary root lenght: two weeks after transfer
Protocol: To investigate in vivo effect of the new derivatives on the root growth and development, seeds of Arabidopsis thaliana (wild-type Col-0) were surface sterilized and sown on vertical plates on half-strength Murashige-Skoog medium (supplied with 0.1% sucrose and 6 g/L phytagel) containing 10 nM BAP or 10 nM 1,2,3-thiadiazol-5-yl-urea derivative, or 0.01% DMSO (solvent control). After vernalization (4 days in the dark, 4° C.) plates were transferred into the growth chamber (22° C., 16/8 light/dark). Two weeks after transfer, seedlings were photographed and root elongation and lateral root formation was scored using Scion image software (Scion Corp., Frederick, Md., USA). At least 40 plants were measured for each treatment.

[5] = Toxicity towards human skin fibroblasts (Calcein AM assay); assay type: cell-based
Protocol: Cytotoxicity of the compounds to human skin fibroblasts (BJ cell line) was determined in a standard Calceinovém AM test. Cells were maintained in plastic tissue culture flasks and grown in Dulbecco's modified Eagle's medium for cell culture (DMEM) at 37° C. in 5% CO2 and 100% humidity. Cells were placed into 96-well microtiter plates (Nunc, Denmark) and after 12 hours pre-incubation, the tested compound was added to a final concentration ranging from […]. Cells were incubated for 72 hours. At the end of incubation period Calcein AM was added in PBS to a final concentration of […]. After 1 hour of incubation fluorescence was measured at 485/538 nm (ex/em wavelength) using Fluoroskan Ascent (Labsystems, Finland). IC50 values (the concentration causing reduction of calcein AM conversion to 50%) were calculated from the curves obtained. All experiments were repeated four times with a maximum deviation of 15%. Due to the limited solubility of substances in water, all the tested compounds were dissolved in DMSO and diluted with water to a final concentration.

wheat leaves = assay: Ethylene production (defoliating activity) assay; set-up: species or system Triticum aestivum; conditions: 10 μM; for Ethylene produced: 96 h in the dark at 25° C., control 270 (±15)
Protocol: We investigated the effect of the compounds of the invention on ethylene production in wheat leaves. The leaves were obtained as described in Example 8, placed in 5 mL glass vials and immersed at 10 μM solutions of tested compounds of the invention or TDZ. Distilled water was used as a control treatment. After 96 h incubation in the dark at 25° C., 1 mL of air was taken from the vials and content of ethylene in it was determined using gas chromatography with the flame ionization detector (GC-FID) method described by Fišerová et al. (Fišerová H, Kula E, Klemš M, Reinöhl V (2001) Phytohormones as indicators of the degree of damage in birch (Betula pendula). Biológia 56: 405-409).

[6] = dark/light 8/16, 22° C., 7 days

| Compound | IC50 ([1]; Triticum aestivum, foliar) [µM] | IC50 [2, 6] [µM] | MDA [3] | Lateral root number [4] | Primary root lenght [4] | CC50 at 72 h [5] [µM] | Ethylene produced (wheat leaves) | also measured |
| --- | --- | --- | --- | --- | --- | --- | --- | --- |
| O=C(NCCS)Nc1cnns1 [Compound 34, 1-(2-thio-ethyl)-3-[1,2,3]thiadiazol-5-yl-urea] |  |  |  |  |  |  |  | IC50 [1]: 18 µM |
| 1-(3,4-dihydro-2H-pyran-2-yl-methyl)-3-[1,2,3]thiadiazol-5-yl-urea [Compound 82] |  |  |  |  |  |  |  | IC50 [1]: 25 µM |
| CC(C)=CCNC(=O)Nc1cnns1 [Compound 21, 1-(3-methyl-but-2-enyl)-3-[1,2,3]thiadiazol-5-yl-urea] | 97 |  |  |  |  |  |  |  |
| O=C(NCCCCCCBr)Nc1cnns1 [Compound 74, 1-(6-bromo-hexyl)-3-[1,2,3]thiadiazol-5-yl-urea] |  |  |  |  |  |  |  | level of membrane lipid peroxidation during dark senescence reduced to ([3]; compared to untreated control): 50.2% |
| COCCCCNC(=O)Nc1cnns1 [Compound 8, 1-(4-methoxy-butyl)-3-[1,2,3]thiadiazol-5-yl-urea] | 25.5 |  |  |  |  |  |  |  |
| COCCCCCNC(=O)Nc1cnns1 [Compound 9, 1-(5-methoxy-pentyl)-3-[1,2,3]thiadiazol-5-yl-urea] | 31 |  |  |  |  |  |  |  |
| 1-(thiophen-2-yl-methyl)-3-[1,2,3]thiadiazol-5-yl-urea [Compound 76] |  |  |  |  |  |  |  | IC50 [1]: 32 µM |
| 1-(thiophen-2-yl-methyl)-3-[1,2,3]thiadiazol-5-yl-urea [Compound 78] |  |  |  |  |  |  |  | IC50 [1]: 45 µM |
| c1ccc(CNc2ncnc3nc[nH]c23)cc1 [6-benzylaminopurine (BAP), 6-benzylaminopurine, reference compound] | 155 | 123 | 19.1 (±1.7) nmol/g FW | 3.6 (±2) | 15 (±5) mm |  |  | effect on peroxidation of membrane lipids (in words) ([3]; compared to untreated control): does not decrease the peroxidation of membrane lipids significantly; root development (in words) [4]: severely and significantly retarded |
| O=C(NCCO)Nc1cnns1 [Compound 1, 1-(2-hydroxy-ethyl)-3-[1,2,3]thiadiazol-5-yl-urea] | 26 |  |  |  |  |  |  |  |
| O=C(NCCCS)Nc1cnns1 [Compound 35, 1-(3-thio-propyl)-3-[1,2,3]thiadiazol-5-yl-urea] |  |  |  |  |  |  |  | IC50 [1]: 12 µM |
| COC(CNC(=O)Nc1cnns1)OC [Compound 16, 1-(2,2-dimethoxy-ethyl)-3-[1,2,3]thiadiazol-5-yl-urea] | 2.9 | 0.16 | 11.6 (±1.2) nmol/g FW | 19 (±9) | 45 (±9) mm | > 100 | 267 (±23) nL/g FW |  |
| O=C(NCCCO)Nc1cnns1 [Compound 2, 1-(3-hydroxy-propyl)-3-[1,2,3]thiadiazol-5-yl-urea] | 9.1 | 0.31 | 16.4 (±1.6) nmol/g FW | 12 (±6) | 39 (±9) mm | > 100 | 293 (±21) nL/g FW |  |
| C/C(=C\CNC(=O)Nc1cnns1)CO [Compound 20, 1-((E)-4-hydroxy-3-methyl-but-2-enyl)-3-[1,2,3]thiadiazol-5-yl-urea] | 12.6 | 0.61 | 15.8 (±0.7) nmol/g FW | 11 (±6) | 32 (±9) mm | > 100 | 254 (±22) nL/g FW | effect on ethylene evolution compared to control (in words) (wheat leaves; 96 h): inhibition of ethylene evolution |
| O=C(Nc1ccccc1)Nc1cnns1 [TDZ, thidiazuron, reference compound] |  |  |  | 2.1 (±2) | 10 (±4) mm |  | 628 (±45) nL/g FW | IC50 [2]: 1.1 µM; elevation of ethylene production compared to untreated control (wheat leaves; 96 h): 133%; times higher production of ethylene than the novel tested compounds (wheat leaves; 96 h): at least 5 times |
| COCCCCCCNC(=O)Nc1cnns1 [Compound 10, 1-(6-methoxy-hexyl)-3-[1,2,3]thiadiazol-5-yl-urea] | 45 |  |  |  |  |  |  |  |

The next lines start with results.

| IC50 ([1]; Triticum aestivum, foliar) [µM] | IC50 [2, 6] [µM] | Compound | MDA [3] | Lateral root number [4] | Primary root lenght [4] | CC50 at 72 h [5] [µM] | Ethylene produced (wheat leaves) | also measured |
| --- | --- | --- | --- | --- | --- | --- | --- | --- |
| 8.6 | 0.43 | COCC(C)NC(=O)Nc1cnns1 (stereo not shown) [Compound 28, 1-(2-methoxy-1-methyl-ethyl)-3-[1,2,3]thiadiazol-5-yl-urea] | 13.9 (±0.9) nmol/g FW | 16 (±7) | 41 (±13) mm | > 100 | 246 (±12) nL/g FW | effect on ethylene evolution compared to control (in words) (wheat leaves; 96 h): inhibition of ethylene evolution |
| 7.1 | 0.25 | C=CCNC(=O)Nc1cnns1 [Compound 50, 1-Allyl-3-[1,2,3]thiadiazol-5-yl-urea] | 17.4 (±1.3) nmol/g FW | 14 (±10) | 42 (±12) mm | > 100 | 279 (±18) nL/g FW |  |
| 10.5 |  | CSCCCCCNC(=O)Nc1cnns1 [Compound 42, 1-(5-methylthio-pentyl)-3-[1,2,3]thiadiazol-5-yl-urea] |  |  |  |  |  |  |
| 22 |  | C#CCNC(=O)Nc1cnns1 [Compound 55, 1-prop-2-ynyl-3-[1,2,3]thiadiazol-5-yl-urea] | 14.1 (±1.1) nmol/g FW | 15 (±8) | 40 (±10) mm | > 100 |  |  |
| 3.5 | 0.1 | CC(O)CNC(=O)Nc1cnns1 (stereo not shown) [Compound 25, 1-(2-Hydroxy-propyl)-3-[1,2,3]thiadiazol-5-yl-urea] | 12.6 (±0.83) nmol/g FW | 12 (±8) | 35 (±0.8) mm | > 100 | 281 (±31) nL/g FW |  |
| 11.2 | 0.42 | O=C(NCC1CCCO1)Nc1cnns1 (stereo not shown) [Compound 75, 1-(tetrahydro-furan-2-yl-methyl)-3-[1,2,3]thiadiazol-5-yl-urea] | 15.2 (±0.7) nmol/g FW | 17 (±6) | 44 (±16) mm | > 100 | 282 (±19) nL/g FW |  |
| 3.1 |  | CSCCNC(=O)Nc1cnns1 [Compound 39, 1-(2-methylthio-ethyl)-3-[1,2,3]thiadiazol-5-yl-urea] |  |  |  |  |  |  |
